The record followed here is ChEMBL document CHEMBL1142990, “Self-organizing maps for identification of new inhibitors of P-glycoprotein” (J Med Chem, 2007).

Where only a bound is given, the exact number is not on record here.

Broadly, the EC50 is the concentration at which the effect is half-maximal.

The target in the experiment is ATP-dependent translocase ABCB1 (Homo sapiens, UniProt P08183). The experiment is described as follows: Inhibition of P-glycoprotein expressed in MDR CCRF vcr1000 cells by daunorubicin efflux assay.
ATP-dependent translocase ABCB1, sequence (P08183 whole entry): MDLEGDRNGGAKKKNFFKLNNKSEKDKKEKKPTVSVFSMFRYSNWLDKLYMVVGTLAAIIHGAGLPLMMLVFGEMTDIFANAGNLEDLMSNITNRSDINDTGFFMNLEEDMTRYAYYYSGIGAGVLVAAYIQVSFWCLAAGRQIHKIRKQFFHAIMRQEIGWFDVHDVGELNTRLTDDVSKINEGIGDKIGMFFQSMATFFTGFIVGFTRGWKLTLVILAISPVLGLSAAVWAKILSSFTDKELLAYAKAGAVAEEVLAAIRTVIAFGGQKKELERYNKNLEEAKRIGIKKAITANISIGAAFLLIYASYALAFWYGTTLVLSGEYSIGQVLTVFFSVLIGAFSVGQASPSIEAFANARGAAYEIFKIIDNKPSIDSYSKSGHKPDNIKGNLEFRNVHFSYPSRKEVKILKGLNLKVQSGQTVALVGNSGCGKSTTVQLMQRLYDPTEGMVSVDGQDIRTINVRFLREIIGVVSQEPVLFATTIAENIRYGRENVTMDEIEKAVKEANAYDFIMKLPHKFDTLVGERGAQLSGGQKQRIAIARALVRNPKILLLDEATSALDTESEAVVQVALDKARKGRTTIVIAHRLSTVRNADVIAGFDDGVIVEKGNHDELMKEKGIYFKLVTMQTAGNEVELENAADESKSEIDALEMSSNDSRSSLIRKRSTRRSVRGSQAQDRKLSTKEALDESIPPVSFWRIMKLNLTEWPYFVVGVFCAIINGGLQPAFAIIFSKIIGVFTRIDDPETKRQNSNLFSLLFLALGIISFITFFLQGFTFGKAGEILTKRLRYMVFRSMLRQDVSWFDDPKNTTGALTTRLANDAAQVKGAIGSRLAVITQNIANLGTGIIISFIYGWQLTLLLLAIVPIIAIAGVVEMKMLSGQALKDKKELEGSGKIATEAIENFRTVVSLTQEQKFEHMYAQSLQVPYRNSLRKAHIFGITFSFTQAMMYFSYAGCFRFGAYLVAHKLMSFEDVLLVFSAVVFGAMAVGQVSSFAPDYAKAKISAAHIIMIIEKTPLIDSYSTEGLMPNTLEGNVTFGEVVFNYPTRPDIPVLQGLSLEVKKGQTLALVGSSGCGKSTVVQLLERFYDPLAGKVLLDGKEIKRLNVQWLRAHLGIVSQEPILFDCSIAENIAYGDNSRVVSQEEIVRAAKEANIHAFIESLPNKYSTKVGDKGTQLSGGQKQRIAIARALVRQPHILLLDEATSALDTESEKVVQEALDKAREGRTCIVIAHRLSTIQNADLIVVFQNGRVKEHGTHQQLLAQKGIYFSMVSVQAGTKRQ

With `OC(COc1ccccc1C(O)CCc1ccccc1)CN1CCN(c2ccc(F)cc2)CC1` (stereo not drawn), the EC50 was determined as 671 nM.

In turn, `CC(C)N(CC(O)COc1ccccc1C(O)CCc1ccccc1)C(C)C` (stereo not drawn) had an EC50 of 1740 nM.

`O=C(CCc1ccccc1)c1ccccc1OCC(O)CNc1ccc([N+](=O)[O-])cc1` (stereo not drawn) had an EC50 of 2570 nM.

`O=C(CCc1ccccc1)c1ccccc1OCC(O)CNc1ccccc1` (stereo not drawn): the EC50 is 6470 nM.

`CC(=O)OC(COc1ccccc1C(=O)CCc1ccccc1)CN1CCCCC1` (stereo not drawn) registered an EC50 of 336 nM.

Compound `CCC(=O)c1ccccc1OCC(O)CN1CCOCC1` (stereo not drawn) came in with an EC50 of 67000 nM.

Compound `O=C(CCc1ccccc1)c1cccc(OCC(O)CN2CCCCC2)c1` (stereo not drawn) had an EC50 of 424 nM.

The compound `C=CCn1c(SCCCC)nc2c(c1=O)C1(CCCC1)Cc1ccccc1-2` came in with an EC50 of 3500 nM.

For `COC(CCc1ccccc1)c1ccccc1OCC(O)CN1CCOCC1` (stereo not drawn), the EC50 is 1810 nM.

For the compound `Cc1cccc(N2CCN(CC(O)COc3cccc(C(=O)CCc4ccccc4)c3)CC2)c1C` (stereo not drawn), it took 137 nM to reach a half-maximal effect (EC50).

As for `O=C(CCc1ccccc1)c1ccccc1OCCCCCCN1CCCCC1`, the EC50 was found to be 203 nM.

`CCCN(CC(O)COc1ccccc1C(=O)CCc1ccccc1)C(=O)c1ccccc1` (stereo not drawn): the EC50 was 1690 nM.

In turn, `O=C(CCc1cccc2ccccc12)c1ccccc1OCC(O)CN1CCOCC1` (stereo not drawn) returned an EC50 of 730 nM.

For `CCN(CC)CC(O)COc1ccccc1C(=O)CCc1ccccc1` (stereo not drawn), the midpoint of the response, the EC50, lay at 907 nM.

In turn, `CC(C)N(CC(O)COc1ccc(C(=O)CCc2ccccc2)cc1)C(C)C` (stereo not drawn) displayed an EC50 of 915 nM.

Consider `OC(COc1ccccc1C(O)CCc1ccccc1)CN1CCOCC1` (stereo not drawn), for which a half-maximal effect (EC50) was put at 9540 nM.

With `CC(=O)c1ccccc1OCC(O)CN1CCC(O)(c2ccccc2)CC1` (stereo not drawn), the midpoint of the response, the EC50, lay at 3200 nM.

Compound `CCC(C)c1ccc(N2C(=O)c3ccccc3NC2c2ccc(OC)cc2)cc1` (stereo not drawn) displayed an EC50 of 760 nM.

The compound `CCC(=O)c1ccccc1OCC(O)CN1CCC(O)(c2ccccc2)CC1` (stereo not drawn) returned an EC50 of 299 nM.

For `O=C(CCc1cccc2ccccc12)c1ccccc1OCC(O)CN1CCC(O)(c2ccccc2)CC1` (stereo not drawn), a half-maximal effect (EC50) was put at 75 nM.

For the compound `COC(CCc1ccccc1)c1ccccc1OCC(O)CN1CCN(c2ccc(F)cc2)CC1` (stereo not drawn), the EC50 was 226 nM.

Compound `CC(=O)c1ccc(OCC(O)CN2CCN(c3ccc(F)cc3)CC2)cc1` (stereo not drawn) gave an EC50 of 11900 nM.

With `Cc1cccc(N2CCN(CC(O)COc3ccc(C(=O)CCc4ccccc4)cc3)CC2)c1C` (stereo not drawn), a half-maximal response (EC50) required 227 nM.

The compound `O=C(CCc1ccccc1)c1ccc(OCC(O)CN2CCOCC2)cc1` (stereo not drawn) registered an EC50 of 6880 nM.

In turn, `O=C(CCc1ccccc1)c1ccccc1OCC(O)CNc1ccc(C(F)(F)F)cc1` (stereo not drawn) showed an EC50 of 8490 nM.

`Cc1ccccc1N1CCN(CC(O)COc2cccc(C(=O)CCc3ccccc3)c2)CC1` (stereo not drawn) gave an EC50 of 74 nM.

Consider `CC(=O)c1ccc(OCC(O)CN2CCN(c3ccccc3C)CC2)cc1` (stereo not drawn), for which the EC50 was determined as 1550 nM.

Compound `CCc1ccc(N2C(=O)c3ccccc3NC2c2ccc(OCc3ccccc3)cc2)cc1` (stereo not drawn) came in with an EC50 greater than 100000 nM.

Turning to `O=C(CCc1ccccc1)c1ccccc1OCC(O)CN1CCN(c2ccc(F)cc2)CC1` (stereo not drawn), the midpoint of the response, the EC50, lay at 70 nM.

As for `O=C(CCc1ccccc1)c1cc(O)ccc1OCC(O)CN1CCCCC1` (stereo not drawn), the EC50 is 1730 nM.

With `CCCNC[C@H](O)c1oc2ccccc2c1CCc1ccccc1`, the 50% effective concentration (EC50) was 1060 nM.

The compound `O=C(CCc1ccccc1)c1ccccc1OCCCN1CCCCC1` came in with an EC50 of 651 nM.

Regarding `CC(C)(C)c1ccc(C(=O)Nc2ccc3nc(SCc4cccc5ccccc45)sc3c2)cc1`, the EC50 was greater than 20000 nM.

With `CC(=O)c1cccc(OCC(O)CN2CCOCC2)c1` (stereo not drawn), it took 128000 nM to reach a half-maximal effect (EC50).

In turn, `O=C(CCc1ccccc1)c1ccccc1OCC(O)CN1CCN(C(=O)c2ccccc2)CC1` (stereo not drawn) gave an EC50 of 130 nM.

Compound `CC(=O)c1ccc(OCC(O)CN2CCOCC2)cc1` (stereo not drawn) registered an EC50 of 302000 nM.

`COc1ccc(C(=O)CCc2ccccc2)c(OCC(O)CN2CCN(c3ccccc3C)CC2)c1` (stereo not drawn): the EC50 came out at 296 nM.

Regarding `OC(COc1ccccc1C(O)CCc1ccccc1)CN1CCCCC1` (stereo not drawn), the half-maximal effective concentration (EC50) was found to be 901 nM.

`COc1ccc(CCC(=O)c2ccccc2OCC(O)CN2CCN(c3ccccc3C)CC2)cc1` (stereo not drawn) showed an EC50 of 14 nM.

Consider `CCCNCC(O)c1oc2ccccc2c1CC` (stereo not drawn), for which the EC50 came to 11500 nM.

Consider `CC(=O)c1ccccc1OCC(O)CN1CCOCC1` (stereo not drawn), for which the EC50 amounted to 207000 nM.

With `Cc1cc(C)n(-c2nnc(N/N=C\c3cccnc3)nn2)n1`, the response was half-maximal at 158000 nM (EC50).

`CCCNCC(O)COc1ccc(OCc2ccccc2)cc1C(=O)CCc1ccccc1` (stereo not drawn): a half-maximal response (EC50) required 110 nM.

On to `O=C1CC(CN2CCCCC2)Oc2ccccc21` (stereo not drawn), for which the EC50 worked out at 176000 nM.

In turn, `O=C(CCc1ccccc1)c1ccccc1OCCN1CCCCC1` returned an EC50 of 1450 nM.

Consider `CCOc1ccccc1NC(=O)C1=C(C)NC(=S)NC1c1cccs1` (stereo not drawn), for which it took 8770 nM to reach a half-maximal effect (EC50).

`O=C(CCc1cccc2ccccc12)c1ccccc1OCC(O)CNCCC(c1ccccc1)c1ccccc1` (stereo not drawn) yielded an EC50 of 723 nM.

`CC(=O)c1cccc(OCC(=O)CN2CCN(c3cccc(C)c3C)CC2)c1` gave an EC50 of 379 nM.

As for `CC1Cc2cccc(OCC(O)CN3CCCCC3)c2C1=O` (stereo not drawn), the EC50 turned out to be 9680 nM.

Turning to `CCC(C)c1ccc(C2Nc3ccccc3C(=O)N2c2ccc(Cl)cc2)cc1` (stereo not drawn), the concentration giving a half-maximal response (EC50) turned out to be 820 nM.

Turning to `O=C(CCc1ccccc1)c1ccccc1OCCCCCCCCN1CCCCC1`, the EC50 was found to be 137 nM.

`CC(=O)c1cccc(OCC(O)CN2CCN(c3ccccc3C)CC2)c1` (stereo not drawn) yielded an EC50 of 537 nM.

With `Cc1ccccc1N1CCN(CC(O)COc2cc(Cl)c(Cl)cc2C(=O)CCc2ccccc2)CC1` (stereo not drawn), the EC50 was 17 nM.

`O=C1CCc2c(OCC(O)CN3CCCCC3)cccc21` (stereo not drawn): the EC50 amounted to 11200 nM.

In turn, `CC(=O)c1ccccc1OCC(O)CN1CCN(c2ccc(F)cc2)CC1` (stereo not drawn) yielded a 50% effective concentration (EC50) of 2090 nM.

In turn, `O=C(CCc1ccccc1)c1ccc(OCC(O)CN2CCCCC2)cc1` (stereo not drawn) yielded an EC50 of 972 nM.

In turn, `O=C(C1Oc2ccccc2C1CCc1ccccc1)N1CCCCC1` (stereo not drawn) gave an EC50 of 6660 nM.

`O=C(CCc1ccccc1)c1ccccc1OCC(O)CNC(c1ccccc1)C1CCCCC1` (stereo not drawn) came in with an EC50 of 145 nM.

With `CC(=O)c1c(C)cc(C)c(CSc2nc3ccc(NC(=O)c4ccc(C(C)(C)C)cc4)cc3s2)c1C`, the EC50 amounted to 280 nM.

The compound `CC(=O)c1ccccc1OCC(O)CN1CCC(Cc2ccccc2)CC1` (stereo not drawn) showed an EC50 of 357 nM.

With `COc1ccc(OCC(O)CN2CCN(c3ccccc3C)CC2)c(C(=O)CCc2ccccc2)c1` (stereo not drawn), the EC50 stood at 179 nM.

In turn, `Clc1ccccc1-c1nc(N2CCCC2)c2ccccc2n1` gave an EC50 of 5940 nM.

`O=C(CCc1ccccc1)c1cccc(OCC(O)CN2CCOCC2)c1` (stereo not drawn): the EC50 is 3480 nM.

With `O=C(CCc1ccccc1)c1cc(OCc2ccccc2)ccc1OCC(O)CN1CCN(Cc2ccccc2)CC1` (stereo not drawn), the midpoint of the response, the EC50, lay at 116 nM.

As to `Cc1ccccc1N1CCN(CC(O)COc2ccc(Cl)cc2C(=O)CCc2ccccc2)CC1` (stereo not drawn), the response was half-maximal at 59 nM (EC50).

Consider `Cn1cc(I)c(C(=O)NNC(=O)c2ccnn2C)n1`, for which the EC50 was greater than 500000 nM.

Take `COc1cccc(N2CCN(CC(O)COc3ccccc3C(=O)CCc3ccccc3)CC2)c1` (stereo not drawn): the EC50 turned out to be 678 nM.

For the compound `O=C1c2cccc(OCC(O)CN3CCCCC3)c2CC1Cc1ccccc1` (stereo not drawn), it took 142 nM to reach a half-maximal effect (EC50).

In the case of `COc1ccc(N2CCN(CC(O)COc3ccccc3C(=O)CCc3ccccc3)CC2)cc1` (stereo not drawn), the EC50 came out at 256 nM.

On to `CC(C)(C)c1ccc(CSc2nc3ccc(NC(=O)c4ccc(C(C)(C)C)cc4)cc3s2)cc1`, for which the EC50 is greater than 50000 nM.

Consider `COc1ccc(C2Nc3ccccc3C(=O)N2c2ccc(Oc3ccccc3)cc2)cc1` (stereo not drawn), for which the midpoint of the response, the EC50, lay at 1000 nM.

For the compound `CC(=O)c1ccc(OCC(O)CN2CCCCC2)cc1` (stereo not drawn), a half-maximal effect (EC50) was put at 49000 nM.

As to `O=C(CCc1ccccc1)c1cccc(OCC(O)CN2CCN(c3ccc(F)cc3)CC2)c1` (stereo not drawn), the EC50 stood at 1120 nM.

`c1ccc(CCc2c(CCN3CCCCC3)oc3ccccc23)cc1` returned an EC50 of 980 nM.

The compound `Cc1ccccc1N1CCN(CC(O)COc2ccccc2C(=O)CCc2ccc(Cl)cc2)CC1` (stereo not drawn) yielded an EC50 of 19 nM.

The compound `Cc1ccccc1N1CCN(CC(O)COc2ccccc2C(=O)CCc2ccccc2)CC1` (stereo not drawn) came in with an EC50 of 27 nM.

In turn, `CC(=O)c1ccc(OCC(O)CNCCC(c2ccccc2)c2ccccc2)cc1` (stereo not drawn) came in with an EC50 of 178 nM.

For `CC(C)(C)C(NCC(O)COc1ccccc1C(=O)CCc1ccccc1)c1ccccc1` (stereo not drawn), the EC50 stood at 292 nM.

Compound `O=C(CCc1ccccc1)c1ccccc1OCC(O)CN1CCOCC1` (stereo not drawn) gave an EC50 of 3650 nM.

With `COc1ccc(-n2c(C3=NNC(=O)CC3)n[nH]c2=S)cc1`, the EC50 was greater than 250000 nM.

`O=C(CCc1ccccc1)c1ccccc1OCC(O)CN1CCC(Cc2ccccc2)CC1` (stereo not drawn): it took 259 nM to reach a half-maximal effect (EC50).

Compound `CCC(=O)c1ccccc1OCC(O)CN1CCCCC1` (stereo not drawn) showed an EC50 of 14300 nM.

Regarding `CC(=O)c1ccccc1OCC(O)CN1CCCCC1` (stereo not drawn), the EC50 amounted to 32000 nM.

`COc1ccc(C(=O)CCc2ccc(N(C)C)cc2)c(OCC(O)CN2CCN(c3ccccc3C)CC2)c1` (stereo not drawn) registered an EC50 of 40 nM.

Turning to `COC(CCc1ccccc1)c1ccccc1OCC(O)CN1CCCCC1` (stereo not drawn), it took 173 nM to reach a half-maximal effect (EC50).

In turn, `CCCNCC(O)COc1ccc(O)cc1C(=O)CCc1ccccc1` (stereo not drawn) [5-HYDROXY PROPAFENONE] yielded an EC50 of 3020 nM.

Compound `CC1c2ccccc2OC1C(=O)N1CCCCC1` (stereo not drawn) registered an EC50 of 104000 nM.

Turning to `O=C(CCc1ccccc1)c1ccccc1OCC(O)CN1CCC(O)(c2ccccc2)CC1` (stereo not drawn), the EC50 was 58 nM.

`COC(=O)c1ccc(NCC(O)COc2ccccc2C(=O)CCc2ccccc2)cc1` (stereo not drawn) showed an EC50 of 1540 nM.

In turn, `CC1c2ccccc2OC1CN1CCCCC1` (stereo not drawn) returned an EC50 of 48900 nM.

For `O=C(N/N=C/c1c(F)cccc1Cl)C(=O)N1CCCCCC1`, a half-maximal response (EC50) required 159000 nM.

Turning to `O=C(CCc1ccccc1)c1ccccc1OCC(O)CN1CCCCC1` (stereo not drawn), it took 599 nM to reach a half-maximal effect (EC50).

`CC(C)N(CC(O)COc1ccc(O)cc1C(=O)CCc1ccccc1)C(C)C` (stereo not drawn) had an EC50 of 1040 nM.

On to `O=C(CCc1cccc2ccccc12)c1ccccc1OCC(O)CN1CCCCC1` (stereo not drawn), for which the response was half-maximal at 172 nM (EC50).

`O=C(CCc1ccccc1)c1cccc(OCC(O)CNCCC(c2ccccc2)c2ccccc2)c1` (stereo not drawn): a half-maximal response (EC50) required 190 nM.

`O=C(CCc1ccccc1)c1ccc(OCC(O)CN2CCN(c3ccc(F)cc3)CC2)cc1` (stereo not drawn) yielded an EC50 of 2540 nM.

The compound `CC(=O)c1cccc(OCC(O)CN2CCCCC2)c1` (stereo not drawn) came in with an EC50 of 9070 nM.

Compound `O=C(CCc1ccccc1)c1ccccc1OCCCCN1CCN(c2ccc(F)cc2)CC1` came in with an EC50 of 192 nM.
